The results in this text go back to ChEMBL document CHEMBL3102697, “Controlled-deactivation cannabinergic ligands” (J Med Chem, 2013).

The source made the active and inactive calls. The calls are words filed in the database; no cut-off is given here. Some results are limits rather than exact numbers.

Series [1] deals with Rattus norvegicus. Put plainly: Induction of hypothermia in sc dosed Sprague-Dawley rat measured for 6 hrs. It is filed as functional, organism-based.
In series [2] the target is T1, Cannabinoid receptor 1 (Rattus norvegicus, UniProt P20272). In words: Displacement of [3H]CP-55,940 from CB1 receptor in rat brain by scintillation counting analysis. It is filed as tissue-based. A general note: Displacement assays read how much labelled ligand stays bound in the presence of the test substance.
For series [3], the target named is Cannabinoid receptor 2 (Mus musculus, UniProt P47936). In words: Displacement of [3H]CP-55,940 from mouse CB2 receptor expressed in HEK293 cell membranes by scintillation counting analysis.
Series [4] concerns Rattus norvegicus. In words: Induction of hypothermia in Sprague-Dawley rat at 3 mg/kg, sc after 60 mins. Type of series: functional, organism-based. Also on record: dose 3 mg/kg.
The test system of series [5] is Plasma. In words: Half life in mouse plasma at 200 uM by HPLC analysis. It is filed as ADME, cell-free.
Series [6] has as its system Rattus norvegicus. Put plainly: Induction of hypothermia in Sprague-Dawley rat at 3 mg/kg, sc up to 300 mins. It is filed as functional, organism-based. Set-up: dose 3 mg/kg.
Series [7] concerns the target Cannabinoid receptor 2 (Homo sapiens, UniProt P34972). In words: Displacement of [3H]CP-55,940 from human CB2 receptor expressed in HEK293 cell membranes by scintillation counting analysis.
Series [8] concerns the target T1, Cannabinoid receptor 1. In words: Agonist activity at rat CB1 receptor expressed in HEK293 cells assessed as inhibition of forskolin-stimulated cAMP accumulation after 30 mins. It is filed as functional, cell-based. On the technique in general: Cyclic AMP is a second messenger, typically raised through Gs and lowered through Gi signalling.
The subject of series [9] is Rattus norvegicus. Put plainly: Induction of hypothermia in Sprague-Dawley rat at 1 to 3 mg/kg, sc measured for 6 hrs. Type of series: functional. The conditions noted are these: dose mg/kg 1-3; route subcutaneous.
Series [10] relates to Plasma. In words: Half life in rat plasma at 200 uM by HPLC analysis. Type of series: ADME, cell-free.
Series [11] addresses Cannabinoid receptor 1 (Rattus norvegicus) (UniProt P20272). In words: Agonist activity at rat CB1 receptor expressed in HEK293 cells assessed as inhibition of forskolin-stimulated cAMP accumulation at 500 nM after 30 mins relative to CP-55,940. It is filed as functional, cell-based.
Series [12] concerns Rattus norvegicus. Put plainly: Induction of hypothermia in Sprague-Dawley rat at 0.3 mg/kg, sc after 2 hrs. Type of series: functional. Conditions: route subcutaneous.
The subject of series [13] is Mus musculus. Put plainly: Analgesic activity in CD-1 mouse assessed as tail-flick withdrawal latency at 0.3 to 1 mg/kg, ip. Type of series: functional, organism-based.
The subject of series [14] is Rattus norvegicus. In words: Induction of hypothermia in Sprague-Dawley rat at 0.3 mg/kg, sc up to 6 hrs. It is filed as functional, organism-based. Also on record: dose 0.3 mg/kg.
Series [15] deals with Cannabinoid receptor 1 (Rattus norvegicus) (UniProt P20272). In words: Agonist activity at rat CB1 receptor expressed in HEK293 cells assessed as inhibition of forskolin-stimulated cAMP accumulation up to 5 uM after 30 mins. Type of series: functional, cell-based.
The test system of series [16] is Rattus norvegicus. In words: Induction of hypothermia in Sprague-Dawley rat at 3 mg/kg, sc after 6 hrs. It is filed as functional, organism-based. Also on record: dose 3 mg/kg.
The subject of series [17] is Rattus norvegicus. Put plainly: Induction of hypothermia in Sprague-Dawley rat at 0.1 to 3 mg/kg, sc measured for 6 hrs. Type of series: functional, organism-based.
The test system of series [18] is Rattus norvegicus. Put plainly: Induction of hypothermia in Sprague-Dawley rat at 1 mg/kg, sc up to 300 mins. It is filed as functional, organism-based. Set-up: dose 1 mg/kg.
The test system of series [19] is Rattus norvegicus. In words: Induction of hypothermia in Sprague-Dawley rat at 1 mg/kg, sc after 90 to 120 mins. Also on record: dose 1 mg/kg. Type of series: functional, organism-based.
The test system of series [20] is Rattus norvegicus. Put plainly: Induction of hypothermia in Sprague-Dawley rat at 3 mg/kg, sc after 90 to 120 mins. It is filed as functional, organism-based. Also on record: dose 3 mg/kg.
Series [21] concerns Rattus norvegicus. Put plainly: Induction of hypothermia in Sprague-Dawley rat at 0.3 mg/kg, sc after 4 hrs. It is filed as functional, organism-based. Set-up: dose 0.3 mg/kg.
Series [22] deals with Rattus norvegicus. In words: Induction of hypothermia in Sprague-Dawley rat at 0.3 mg/kg, sc measured at 12 hrs. It is filed as functional, organism-based. Also on record: dose 0.3 mg/kg.

Chain of Cannabinoid receptor 1 (Rattus norvegicus) (P20272 whole entry): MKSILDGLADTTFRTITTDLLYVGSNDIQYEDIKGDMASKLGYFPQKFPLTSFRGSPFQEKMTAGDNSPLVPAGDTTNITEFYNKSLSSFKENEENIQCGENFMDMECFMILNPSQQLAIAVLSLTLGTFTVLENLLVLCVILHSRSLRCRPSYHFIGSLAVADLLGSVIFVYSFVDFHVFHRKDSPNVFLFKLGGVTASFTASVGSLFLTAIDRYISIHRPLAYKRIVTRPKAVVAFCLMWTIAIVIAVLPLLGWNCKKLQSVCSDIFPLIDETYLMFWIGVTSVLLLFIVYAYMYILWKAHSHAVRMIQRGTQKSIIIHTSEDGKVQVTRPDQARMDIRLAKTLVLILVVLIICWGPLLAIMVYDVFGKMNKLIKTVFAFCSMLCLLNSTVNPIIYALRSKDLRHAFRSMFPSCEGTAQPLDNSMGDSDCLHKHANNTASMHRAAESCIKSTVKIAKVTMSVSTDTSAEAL
T1 sequence (P20272 whole entry): as above
Chain of Cannabinoid receptor 2 (Mus musculus, UniProt P47936) (P47936 whole entry): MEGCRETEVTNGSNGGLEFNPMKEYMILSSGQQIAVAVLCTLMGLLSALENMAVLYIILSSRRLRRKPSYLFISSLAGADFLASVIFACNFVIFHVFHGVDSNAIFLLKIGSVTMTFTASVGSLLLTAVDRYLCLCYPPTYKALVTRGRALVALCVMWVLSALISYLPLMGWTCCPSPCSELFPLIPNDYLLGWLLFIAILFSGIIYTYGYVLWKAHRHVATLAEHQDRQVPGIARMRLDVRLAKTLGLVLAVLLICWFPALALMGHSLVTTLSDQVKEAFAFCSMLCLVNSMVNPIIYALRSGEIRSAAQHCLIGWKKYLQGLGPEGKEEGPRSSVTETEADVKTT
Chain of Cannabinoid receptor 2 (Homo sapiens, UniProt P34972) (P34972 whole entry): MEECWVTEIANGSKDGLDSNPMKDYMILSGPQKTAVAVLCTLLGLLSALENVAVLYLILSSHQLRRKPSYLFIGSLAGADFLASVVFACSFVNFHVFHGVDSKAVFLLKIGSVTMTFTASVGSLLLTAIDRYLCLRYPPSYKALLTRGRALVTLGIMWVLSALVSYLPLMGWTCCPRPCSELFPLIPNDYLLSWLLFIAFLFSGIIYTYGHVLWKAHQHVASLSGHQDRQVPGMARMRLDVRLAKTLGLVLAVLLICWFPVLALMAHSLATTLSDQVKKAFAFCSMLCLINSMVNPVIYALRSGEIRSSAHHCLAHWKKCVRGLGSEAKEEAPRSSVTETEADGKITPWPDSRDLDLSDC

As usually defined, the Ki is the equilibrium dissociation constant of an inhibitor or competing ligand from its target. Low values mean a stronger hold on the target, high ones a looser hold on the target. Turning to `CC1=CC[C@@H]2[C@@H](C1)c1c(O)cc([C@@H](C)C(=O)O)cc1OC2(C)C`, in series [1], the result was inactive. For the same compound, the Ki in series [2] and in series [3] was > 10000 nM throughout.

As for `CC1=CC[C@@H]2[C@@H](C1)c1c(O)cc([C@H](C)C(=O)O)cc1OC2(C)C`, in series [1], the outcome was inactive. The Ki in [2] and in series [3] was > 10000 nM in each case.

In general, EC50 refers to the concentration that produces a half-maximal response. The Emax is the maximal effect, on the per cent scale that the assay sets. For `CCCCOC(=O)C(C)(C)c1cc(O)c2c(c1)OC(C)(C)[C@@H]1CC=C(C)C[C@@H]21`, in series [1], the Activity entry was “Dose-dependent effect”. In addition, the outcome in [4], in [13] and in [14] was Active. Besides, the t1/2 in [5] came out at 12.4 min; in [10], 120 min. The outcome in [6] was inactive. Besides, the results for the Ki in series [7], in series [2] and in series [3] were 1.7 nM, 0.3 nM and 2.1 nM, respectively. Also, the EC50 in series [8] turned out to be 0.5 nM. Further, the T in series [9] turned out to be 3.6 °C; in series [12] it was 2 °C. Moreover, the Emax in [11] amounted to 92%.

On to `CCCCOC(=O)Cc1cc(O)c2c(c1)OC(C)(C)[C@@H]1CC=C(C)C[C@@H]21`, for which the inhibition entry in [15] is “inactive”. Also, the values for the t1/2 in series [5] and in [10] were 0.7 min and < 0.5 min, respectively. The figures for the inhibition constant Ki in series [7], in [2] and in series [3] were 51.5 nM, 27.1 nM and 40.4 nM, respectively. The result in [16] and in [17] was inactive.

Turning to `CC1=CC[C@@H]2[C@@H](C1)c1c(O)cc(CC(=O)O)cc1OC2(C)C`, in [1], the outcome was inactive. Further, the Ki in series [2] and in series [3] was > 10000 nM throughout.

Take `CCCCOC(=O)[C@H](C)c1cc(O)c2c(c1)OC(C)(C)[C@@H]1CC=C(C)C[C@@H]21`: the inhibition entry in series [15] is “inactive”. Also, the t1/2 in [5] was 5.9 min; in [10], 10.5 min. Besides, the Ki in series [7] is 3.7 nM; in [2], 1.6 nM; in series [3] it was 4.5 nM. Besides, the result in series [16] and in series [17] was inactive.

On to `CCCCOC(=O)C1(c2cc(O)c3c(c2)OC(C)(C)[C@@H]2CC=C(C)C[C@@H]32)CCC1`, for which the Activity result in series [1] was “Dose-dependent effect”. In addition, the result in series [18] was inactive. The t1/2 is given as 36.3 min in series [5] and 263 min in series [10]. The Ki in [7] and in series [3] was 3 nM throughout. Also, the half-maximal effective concentration (EC50) in [8] was 0.4 nM. In addition, the T in [9] was found to be 3.6 °C. The outcome in [19] was Active. Moreover, in [11], the Emax amounted to 90%.

With `CC1=CC[C@@H]2[C@@H](C1)c1c(O)cc(C3(C(=O)O)CCC3)cc1OC2(C)C`, the result in series [1] was inactive. Besides, the Ki in series [2] and in series [3] was > 10000 nM throughout.

As to `CCCCOC(=O)[C@@H](C)c1cc(O)c2c(c1)OC(C)(C)[C@@H]1CC=C(C)C[C@@H]21`, the outcome in series [20] was Active. Further, in [1], the Activity result was “Dose-dependent effect”. For the same compound, the t1/2 in [5] came out at 4 min; in series [10], 4.3 min. Moreover, in [6], the result was inactive. In addition, the Ki turned out to be 6.3 nM in series [7], 0.6 nM in [2] and 6.2 nM in series [3]. Moreover, the EC50 in series [8] came out at 4.2 nM. Besides, in [9], the T was determined as 3.6 °C. Further, the Emax in series [11] is 63%.

For `CC1=CC[C@@H]2[C@@H](C1)c1c(O)cc(C(C)(C)C(=O)O)cc1OC2(C)C`, the outcome in series [1] was inactive. Also, the Ki in series [2] and in series [3] was > 10000 nM each time.

Regarding `CCCCCCC(C)(C)c1cc(O)c2c(c1)OC(C)(C)[C@@H]1CC=C(C)C[C@@H]21`, the outcome in series [17], in series [21], in [13] and in series [22] was Active.
